pIC50: −log10 of the molar value. Blank lines part the entries; values can stand above or below the compound they belong to.
How the values were obtained:
Assay in all cases: biochemical
Assay type in all cases: biochemical
382 unique human kinases [1] = biological target: T1, 382 unique human kinases (Homo sapiens, UniProt Q9HC98); settings: NEK6; read-out: Control Compound IC50*
T1 construct: purchased Reaction Biology (HotSpot contract assay)

382 unique human kinases [2] = biological target: T2, 382 unique human kinases (Homo sapiens, UniProt Q8TDX7); settings: NEK7; read-out: Control Compound IC50*
T2 construct: purchased Reaction Biology (HotSpot contract assay)
T2 sequence (Q8TDX7 whole entry): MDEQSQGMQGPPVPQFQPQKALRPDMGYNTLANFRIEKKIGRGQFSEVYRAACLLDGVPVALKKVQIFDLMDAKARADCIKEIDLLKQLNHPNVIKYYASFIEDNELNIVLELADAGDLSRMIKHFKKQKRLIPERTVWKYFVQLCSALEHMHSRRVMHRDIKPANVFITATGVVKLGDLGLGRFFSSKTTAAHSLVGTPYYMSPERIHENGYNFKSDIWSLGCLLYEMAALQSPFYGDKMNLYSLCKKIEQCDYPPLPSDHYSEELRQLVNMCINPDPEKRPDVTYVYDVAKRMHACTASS

382 unique human kinases [3] = biological target: T3, 382 unique human kinases (Homo sapiens, UniProt Q6IQ55); settings: TTBK2; read-out: Control Compound IC50*
T3 construct: purchased Reaction Biology (HotSpot contract assay)
T3 sequence (Q6IQ55 whole entry): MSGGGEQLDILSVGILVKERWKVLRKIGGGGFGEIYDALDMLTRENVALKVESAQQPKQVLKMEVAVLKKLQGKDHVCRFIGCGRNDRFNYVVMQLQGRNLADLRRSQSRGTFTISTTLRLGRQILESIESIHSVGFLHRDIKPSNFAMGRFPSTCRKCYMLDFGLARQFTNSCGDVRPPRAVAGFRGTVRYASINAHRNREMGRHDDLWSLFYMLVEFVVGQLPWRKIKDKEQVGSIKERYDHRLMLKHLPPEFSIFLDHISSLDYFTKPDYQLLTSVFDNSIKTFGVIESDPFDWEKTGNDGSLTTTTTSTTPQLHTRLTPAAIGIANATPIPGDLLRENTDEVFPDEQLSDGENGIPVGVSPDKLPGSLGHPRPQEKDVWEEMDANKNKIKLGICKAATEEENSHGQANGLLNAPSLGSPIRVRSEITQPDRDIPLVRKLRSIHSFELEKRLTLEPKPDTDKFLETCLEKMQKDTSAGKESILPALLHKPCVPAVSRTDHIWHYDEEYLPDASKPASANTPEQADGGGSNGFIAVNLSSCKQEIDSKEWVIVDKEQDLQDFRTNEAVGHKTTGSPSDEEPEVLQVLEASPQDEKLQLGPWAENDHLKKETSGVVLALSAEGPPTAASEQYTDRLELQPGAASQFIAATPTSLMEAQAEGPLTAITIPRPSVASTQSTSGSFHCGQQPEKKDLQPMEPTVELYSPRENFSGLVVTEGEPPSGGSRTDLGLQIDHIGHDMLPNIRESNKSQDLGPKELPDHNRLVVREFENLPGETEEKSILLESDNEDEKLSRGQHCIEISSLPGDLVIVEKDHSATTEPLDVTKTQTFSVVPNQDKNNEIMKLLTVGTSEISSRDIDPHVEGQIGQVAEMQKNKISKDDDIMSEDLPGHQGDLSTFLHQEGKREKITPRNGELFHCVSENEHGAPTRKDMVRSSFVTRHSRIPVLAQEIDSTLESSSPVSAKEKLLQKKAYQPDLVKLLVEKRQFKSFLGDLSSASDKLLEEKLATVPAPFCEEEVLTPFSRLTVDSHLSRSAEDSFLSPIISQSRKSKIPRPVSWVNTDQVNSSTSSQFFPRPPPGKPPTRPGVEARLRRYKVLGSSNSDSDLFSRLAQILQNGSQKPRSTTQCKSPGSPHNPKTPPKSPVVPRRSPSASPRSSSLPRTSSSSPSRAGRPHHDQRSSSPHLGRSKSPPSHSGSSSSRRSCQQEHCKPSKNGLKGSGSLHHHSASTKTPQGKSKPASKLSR

382 unique human kinases [4] = biological target: T4, 382 unique human kinases (Homo sapiens, UniProt P27361); settings: ERK1; read-out: Control Compound IC50*
T4 construct: purchased Reaction Biology (HotSpot contract assay)
T4 sequence (P27361 whole entry): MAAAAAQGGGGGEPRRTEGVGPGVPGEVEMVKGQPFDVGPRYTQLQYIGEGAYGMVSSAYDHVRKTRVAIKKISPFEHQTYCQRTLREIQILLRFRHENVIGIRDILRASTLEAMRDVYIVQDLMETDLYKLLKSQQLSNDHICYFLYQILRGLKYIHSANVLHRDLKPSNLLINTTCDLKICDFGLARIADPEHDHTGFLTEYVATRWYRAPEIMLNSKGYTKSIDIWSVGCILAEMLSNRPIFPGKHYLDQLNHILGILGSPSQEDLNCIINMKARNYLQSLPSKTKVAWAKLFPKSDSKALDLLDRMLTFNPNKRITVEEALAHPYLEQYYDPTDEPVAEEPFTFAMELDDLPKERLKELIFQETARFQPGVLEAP

382 unique human kinases [5] = biological target: T5, 382 unique human kinases (Homo sapiens, UniProt Q9BYP7); settings: WNK3; read-out: Control Compound IC50*
T5 construct: purchased Reaction Biology (HotSpot contract assay)

382 unique human kinases [6] = biological target: T6, 382 unique human kinases (Homo sapiens, UniProt Q86Y07); settings: kinase VRK2; read-out: Control Compound IC50*
T6 construct: purchased Reaction Biology (HotSpot contract assay)
T6 sequence (Q86Y07 whole entry): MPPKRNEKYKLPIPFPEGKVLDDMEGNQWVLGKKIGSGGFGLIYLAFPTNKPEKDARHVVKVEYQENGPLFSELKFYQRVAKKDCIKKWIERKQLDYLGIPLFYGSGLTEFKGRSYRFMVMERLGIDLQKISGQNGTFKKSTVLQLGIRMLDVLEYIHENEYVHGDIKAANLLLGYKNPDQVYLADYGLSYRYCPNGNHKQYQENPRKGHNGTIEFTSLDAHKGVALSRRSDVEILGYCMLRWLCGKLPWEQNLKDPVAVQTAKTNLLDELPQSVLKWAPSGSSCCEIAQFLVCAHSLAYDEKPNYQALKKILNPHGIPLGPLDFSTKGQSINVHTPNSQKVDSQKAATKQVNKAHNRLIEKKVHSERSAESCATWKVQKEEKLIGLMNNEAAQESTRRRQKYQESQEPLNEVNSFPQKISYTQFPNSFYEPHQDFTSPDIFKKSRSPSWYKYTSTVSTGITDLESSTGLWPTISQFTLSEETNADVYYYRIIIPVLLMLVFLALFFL

382 unique human kinases [7] = biological target: T7, 382 unique human kinases (Homo sapiens, UniProt Q86Z02); settings: HIPK1; read-out: Control Compound IC50*
T7 construct: purchased Reaction Biology (HotSpot contract assay)

382 unique human kinases [8] = biological target: T8, 382 unique human kinases (Homo sapiens, UniProt P41279); settings: COT1/MAP3K8; read-out: Control Compound IC50*
T8 construct: purchased Reaction Biology (HotSpot contract assay)
T8 sequence (P41279 whole entry): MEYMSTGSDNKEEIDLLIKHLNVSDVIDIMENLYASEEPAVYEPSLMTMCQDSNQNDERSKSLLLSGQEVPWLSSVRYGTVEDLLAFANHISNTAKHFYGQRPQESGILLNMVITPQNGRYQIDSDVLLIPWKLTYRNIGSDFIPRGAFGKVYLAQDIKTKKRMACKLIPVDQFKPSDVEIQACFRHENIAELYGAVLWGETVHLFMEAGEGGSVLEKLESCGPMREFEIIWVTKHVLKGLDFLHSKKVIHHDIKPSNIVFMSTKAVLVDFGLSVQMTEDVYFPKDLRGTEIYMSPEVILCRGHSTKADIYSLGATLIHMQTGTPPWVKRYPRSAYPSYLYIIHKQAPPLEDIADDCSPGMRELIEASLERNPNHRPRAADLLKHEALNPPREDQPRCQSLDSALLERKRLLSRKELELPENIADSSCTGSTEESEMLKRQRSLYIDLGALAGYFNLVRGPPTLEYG

382 unique human kinases [9] = biological target: T9, 382 unique human kinases (Homo sapiens, UniProt Q99986); settings: VRK1; read-out: Control Compound IC50*
T9 construct: purchased Reaction Biology (HotSpot contract assay)
T9 sequence (Q99986 1-396): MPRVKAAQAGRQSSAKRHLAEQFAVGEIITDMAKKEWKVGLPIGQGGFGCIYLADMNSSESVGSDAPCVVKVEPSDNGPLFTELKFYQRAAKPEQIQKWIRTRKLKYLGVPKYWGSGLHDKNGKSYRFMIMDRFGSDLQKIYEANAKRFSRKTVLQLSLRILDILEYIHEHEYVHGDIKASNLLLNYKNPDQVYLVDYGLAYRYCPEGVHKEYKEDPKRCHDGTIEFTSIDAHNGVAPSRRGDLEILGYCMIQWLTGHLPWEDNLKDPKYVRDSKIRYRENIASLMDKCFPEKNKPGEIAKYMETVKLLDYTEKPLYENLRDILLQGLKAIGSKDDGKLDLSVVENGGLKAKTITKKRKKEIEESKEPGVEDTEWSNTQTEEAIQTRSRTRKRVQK

382 unique human kinases [10] = biological target: T10, 382 unique human kinases (Homo sapiens, UniProt Q92918); settings: kinase HPK1/MAP4K1; read-out: Control Compound IC50*
T10 construct: purchased Reaction Biology (HotSpot contract assay)
T10 sequence (Q92918 whole entry): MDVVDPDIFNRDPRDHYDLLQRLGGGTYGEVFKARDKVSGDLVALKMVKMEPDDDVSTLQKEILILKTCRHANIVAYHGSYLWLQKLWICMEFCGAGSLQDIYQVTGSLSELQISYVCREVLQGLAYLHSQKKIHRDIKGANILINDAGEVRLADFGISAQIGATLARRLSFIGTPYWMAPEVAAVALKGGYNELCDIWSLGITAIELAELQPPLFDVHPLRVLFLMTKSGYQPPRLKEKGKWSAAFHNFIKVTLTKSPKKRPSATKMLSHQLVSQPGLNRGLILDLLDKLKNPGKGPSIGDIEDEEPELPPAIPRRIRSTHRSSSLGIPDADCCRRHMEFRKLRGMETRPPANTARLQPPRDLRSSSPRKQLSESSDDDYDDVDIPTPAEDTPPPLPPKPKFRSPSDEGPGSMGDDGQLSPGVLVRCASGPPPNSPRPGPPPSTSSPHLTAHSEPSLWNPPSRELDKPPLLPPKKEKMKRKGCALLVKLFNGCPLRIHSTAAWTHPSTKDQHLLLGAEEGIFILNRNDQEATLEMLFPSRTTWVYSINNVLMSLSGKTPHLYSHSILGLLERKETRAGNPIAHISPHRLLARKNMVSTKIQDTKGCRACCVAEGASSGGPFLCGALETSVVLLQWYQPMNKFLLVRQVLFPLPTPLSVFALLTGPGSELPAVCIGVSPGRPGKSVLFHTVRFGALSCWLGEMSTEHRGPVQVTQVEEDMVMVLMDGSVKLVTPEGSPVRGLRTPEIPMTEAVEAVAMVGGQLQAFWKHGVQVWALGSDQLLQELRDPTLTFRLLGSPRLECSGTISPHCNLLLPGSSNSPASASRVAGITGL

T1 sequence (Q9HC98 whole entry): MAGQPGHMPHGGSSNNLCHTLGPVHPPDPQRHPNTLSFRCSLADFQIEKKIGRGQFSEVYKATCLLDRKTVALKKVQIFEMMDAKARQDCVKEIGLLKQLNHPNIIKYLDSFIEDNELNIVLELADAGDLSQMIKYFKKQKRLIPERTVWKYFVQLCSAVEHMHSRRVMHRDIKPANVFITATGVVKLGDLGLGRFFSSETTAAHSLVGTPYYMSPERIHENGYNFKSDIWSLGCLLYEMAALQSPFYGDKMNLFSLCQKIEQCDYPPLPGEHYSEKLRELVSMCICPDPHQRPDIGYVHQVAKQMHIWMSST

Compound: O=C1Nc2ccc3ncsc3c2/C1=C/c1cnc[nH]1 [PKR Inhibitor]
pIC50 (382 unique human kinases [1]): 4.45
pIC50 (382 unique human kinases [2]): 4.91

Compound: Oc1ccc(-c2nc(-c3ccncc3)c(-c3ccc(F)cc3)[nH]2)cc1 [SB202190]
pIC50 (382 unique human kinases [3]): 5.03

Compound: Ro-31-8220
pIC50 (382 unique human kinases [6]): 5.04
pIC50 (382 unique human kinases [7]): 6.10
pIC50 (382 unique human kinases [8]): 5.11
pIC50 (382 unique human kinases [9]): 6.28
pIC50 (382 unique human kinases [10]): 7.35

Now from value to compound:

pIC50 (382 unique human kinases [4]): 8.01
Compound: O=C(Nc1ccc2[nH]nc(-c3ccncc3)c2c1)[C@@H]1CCN(CC(=O)N2CCN(c3ccc(-c4ncccn4)cc3)CC2)C1 [SCH772984]

pIC50 (382 unique human kinases [5]): 5.45
Compound: O=C1NC(=O)c2c1c(-c1ccccc1Cl)cc1[nH]c3ccc(O)cc3c21 [Wee-1 Inhibitor]

Source: paper PMC8550792, “Evolution of kinase polypharmacology across HSP90 drug discovery” (Cell Chemical Biology, 2021)
